Twelve compounds from patent US20250008959A1, “HERBICIDES AND USE THEREOF” (Projini Agchem LTD, priority 2021, published 2025) can be followed below.

The target of test [1] is T1, AtOASS (O-acetyl serine sulfhydrylase from Arabidopsis thaliana) (Arabidopsis thaliana, UniProt P47998).
T1 construct: GST (N, cleaved yes); made in house; host or cells: E. coli Rosetta (DE3)
Briefly: Isothermal titration calorimetry (ITC) binding to OASS. Conditions: OASS titrated into compound in ITC cell; single binding model. The text has this:
To evaluate the ability of the molecules to bind AtOASS (O-acetyl serine sulfhydrylase from Arabidopsis thaliana), the protein was placed in the ITC syringe and was titrated with the molecules that were placed in the ITC cell (see Examples section below). The direct dissociation binding constant (Kd) was then extracted from the binding curve using a single binding model, wherein a low Kd value corresponds to a stronger binding affinity.
To evaluate the binding of the small molecules to the enzyme OASS, the purified protein was placed in a 6-8 MWCO dialysis bag in 30 mM phosphate buffer, 30 mM NaCl, 1 mM TCEP, and 5% dimethyl sulfoxide. Sequential buffer exchange dialyses were executed for 12 hours each at 4° C. until dilution of >10,000 was achieved. Before the execution of the ITC binding experiment, the OASS was placed in the ITC syringe at a concentration of 400 μM and each of the small molecules was dissolved in the same dialysis buffer to a final concentration of 40 μM in the ITC cell. ITC experiments were conducted by titrating the OASS to the compounds in the cell. The ITC binding constant was evaluated using the build-in analysis software.
The designed de-novo herbicidal compounds were synthesized and evaluated for their in vitro and in planta activity. After dissolving the molecules to a stock of 50 mM in DMSO, binding and competition with the SAT-derived peptides were evaluated using ITC and FP. ITC measures the direct heat change occurring due to the interaction of a pair of molecules. ITC has certain advantages, such as the capability to detect a relatively broad range of binding affinities, being a label-free method, and providing a wide set of interaction parameters, such as affinity, stoichiometry, enthalpy, and entropy of binding. To evaluate the ability of the molecules to bind AtOASS, the protein was placed in the ITC syringe and was titrated with the molecules that were placed in the ITC cell. The direct dissociation binding constant (Kd) was then extracted from the binding curve using a single binding model. Two consecutive experiments were combined using the built in ITC module to enable better quantification. A low Kd value corresponds to a stronger binding affinity.
On the technique in general: Isothermal titration calorimetry measures the heat released or taken up as one component is titrated into another.

Test [2] addresses T2, OASS-SAT complex (AtOASS with SAT-derived peptide) (Arabidopsis thaliana, UniProt P47998).
T2 construct: GST (N, cleaved yes); made in house; host or cells: E. coli Rosetta (DE3)
The test can be described thus: Fluorescence polarization (FP) competition with FITC-labeled SAT-derived peptide bound to OASS. In kind it is binding. Conditions: competition with FITC-SAT peptide 200 nM, OASS 2.2 μM; for IC50: single site inhibition model. The protocol: Molecules were also tested for their ability to compete with the OASS binding to the SAT-derived peptide via a fluorescence polarization (FP) competition assay wherein the N-terminus labeled peptide was incubated with the AtOASS (see Examples section below). High FP values correspond to the peptide-bound state (low molecule concentrations) and low FP values correspond to the peptide-free state (low FP values). To extract the IC50, the FP data were fitted to a single site inhibition model in PRISM by GraphPad Software. The corresponding IC50 values were extracted, whereas low IC50 values correspond to molecule that better competes with the peptide binding to AtOASS. Fluorescence polarization (FP) measurements were made on samples arrayed in 96-well plates by using BioTek H1 Synergy instrument equipped with FP module. […] The peptide in a concentration of 200 nM was incubated with OASS at a concentration of 2.2 μM in each well. Variable concentrations of each molecule starting from 100 μM down to 0.048 μM were added to evaluate the ability of each molecule to compete off the FITC labeled peptide bound to OASS. Fluorescence experiments were executed with an Em/Exc wavelengths of 480/520 nm. All measurements were done in triplicate. Experimental polarization data from simple and competitive binding experiments were fitted using GraphPad Prism, with error bars representing SD. Molecules were also tested for their ability to compete with the OASS binding to the SAT-derived peptide via a fluorescence polarization (FP) competition assay. The N-terminus labeled peptide was incubated with the AtOASS in each of the wells in a 96-well plate. Various concentrations of the molecules were added and the FP values were recorded. High FP values correspond to the peptide-bound state (low molecule concentrations) and low FP values correspond to the peptide-free state (low FP values). To extract the IC50, the FP data were fitted to a single site inhibition model in graphpad prism. The corresponding IC50 values were extracted. Low IC50 values correspond to molecule that better competes with the peptide binding to AtOASS.
For orientation: In fluorescence polarisation assays a small probe gives low polarisation when free and higher when bound to something large.

Test [3] deals with Arabidopsis thaliana. Briefly: Root elongation in plates (in planta root elongation assay). Type of test: in vivo. Conditions: 168 h, A. thaliana on MS medium plates, 7 days, read-out: Root-growth inhibition %. The protocol:
6-well plates were prepared in a biological hood with sterile half Murashige and Skoog mineral medium (MS; Duchefa, Haarlem, Netherlands) containing 1% sucrose (w/v), pH 5.8. Tested molecules were dissolved in 50 mM DMSO and diluted to various concentrations 1,000-fold greater than the final desired concentration the MS medium maintaining a final concentration of 0.1% DMSO. MS medium with 0.1% DMSO was used as a negative control. After 7 days the plates were scanned and the root length was calculated using the imageJ software. […] Further sterilization was done by washing the seeds with 50% hypochlorite and 0.2% Triton x-100 for 10 minutes followed by five cycles of washing with sterile water. Six seeds were placed in each well, and the plates were covered and sealed with parafilm. Plates were placed vertically at 4° C. for two days and then transferred to a growth chamber for seven days (22-24° C.) at day/light cycles of 16/8 hours. Following the in vitro evaluation, selected molecules were tested for their ability to inhibit A. thaliana root elongation on agar plates. Seeds were plated on medium containing the molecules dissolved in the indicated concentrations and root length was measured after 6 or 7 days when the root in the non-treated plate reached the end of the well.

Test [4] concerns Amaranthus palmeri. The test can be described thus: Pre-emergence assay in pots. Conditions: pots sprayed with 2 ml, 5 mM, monitored 21 days. In kind it is in vivo. The protocol:
(§1) 7×7 cm pots were prepared with 20% soil and 80% sand. Trifolium alexandrium (16 seeds), Lolium rigidum (25 seeds), Solanum nigrum (25 seeds), Amaranthus palmeri (40 seeds) or Sinapis arvensis (12 seeds) were sowed and 2 cm of strained sand was used to cover the seeds. The pots were placed in the growth room under a lighting regime of 16 hours of light and 8 hours in the dark at 23° C. The day after (except for the Solanum and Amaranthus 4-5 days after), the pots were sprayed in a chemical hood at a 45° angle with 2 ml spray solution containing 1:10 acetone or phosphate buffer dissolved active ingredient in tap water to a final concentration of 5 mM. Every 2-3 days the pots were irrigated with tap water.
(§2) Pre-emergence herbicidal activity was determined by monitoring plant growth in pots. Molecules were dissolved at the indicated concentrations below and volume of 2 ml was sprayed onto the soil, and plant growth was monitored for 21 days.

In test [5] the test system is Trifolium alexandrium. Briefly: Pre-emergence assay in pots. Type of test: in vivo. Conditions: pots sprayed with 2 ml, 5 mM, monitored 21 days. Here is the method: as §1, §2
For test [6], the system named is Sinapis arvensis. Briefly: Pre-emergence assay in pots. Conditions: pots sprayed with 2 ml, 5 mM, monitored 21 days. In kind it is in vivo. Here is the method: as §1, §2

T1 sequence (P47998 whole entry): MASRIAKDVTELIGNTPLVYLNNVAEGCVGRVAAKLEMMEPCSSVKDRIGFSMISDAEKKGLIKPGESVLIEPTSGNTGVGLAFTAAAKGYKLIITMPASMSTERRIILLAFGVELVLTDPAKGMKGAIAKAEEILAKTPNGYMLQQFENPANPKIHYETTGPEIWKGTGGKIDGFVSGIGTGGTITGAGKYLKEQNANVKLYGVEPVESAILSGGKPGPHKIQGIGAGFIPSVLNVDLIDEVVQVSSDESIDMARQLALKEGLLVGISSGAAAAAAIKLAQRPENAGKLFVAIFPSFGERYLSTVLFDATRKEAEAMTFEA
T2 sequence (P47998 whole entry, one chain of several): as the sequence (P47998 whole entry) above

Regarding `O=C(O)c1cc(F)ccc1NS(=O)(=O)c1cnc(-c2ccccc2)s1` [PJL-47], in test [1], the equilibrium dissociation constant (Kd) (usually the free concentration of one partner at which half of the binding sites on the other are occupied at equilibrium, for simple one-to-one binding) was 6 µM. Also, in test [2], the FP % inhibition is 16% and the IC50 (in general, the point on the concentration scale where inhibition reaches its midpoint) is 68 µM. The inhibition (in general, the percentage by which the read-out fell short of the control) at 50 µM in test [3] came to 88%. Further, in test [4], the “Pre-emergence assay Germination inhibition on (%)” value was 66% and the “Pre-emergence assay Growth inhibition on (%)” value was 20%.

In test [1], `COc1ccc(-c2csc(NC(=O)c3ccccc3-c3ccccc3C(=O)O)n2)cc1` [PJL-61] showed an equilibrium dissociation constant (Kd) of 0.4 µM. In test [2], the FP % inhibition was determined as 43% and the IC50 was found to be 4.7 µM. Also, the inhibition at 50 µM in test [3] was determined as 95%. Also, in test [4], the “Pre-emergence assay Germination inhibition on (%)” value was 33% and the “Pre-emergence assay Growth inhibition on (%)” value came out at 0%. Also, in test [5], the “Pre-emergence assay Germination inhibition on (%)” value was 70% and the “Pre-emergence assay Growth inhibition on (%)” value is 60%.

`COc1ccc(C(=O)O)c(NS(=O)(=O)c2cnc(-c3ccc(F)cc3)s2)c1` [PJL-79]: the Kd in test [1] worked out at 7.1 µM. In addition, in test [2], the FP % inhibition is listed as 18% and the IC50 was determined as 55 µM. The inhibition at 50 µM in test [3] was 97%. Also, in test [6], the “Pre-emergence assay Germination inhibition on (%)” value is 95% and the “Pre-emergence assay Growth inhibition on (%)” value came to 90%.

In turn, `COc1ccc(-c2csc(NC(=O)c3ccccc3-c3ccccc3C(=O)O)n2)c(Cl)c1` [PJL-116] had a Kd in test [1] of 0.5 µM. Moreover, in test [2], the FP % inhibition is reported as 41% and the IC50 was 3.6 µM. Further, the inhibition at 50 µM in test [3] was 92%. In addition, in test [5], the “Pre-emergence assay Germination inhibition on (%)” value is 75% and the “Pre-emergence assay Growth inhibition on (%)” value was determined as 80%.

Turning to `COc1ccc(C(=O)O)c(-c2ccccc2C(=O)Nc2nc(-c3ccc(Cl)cc3Cl)cs2)c1` [PJL-118], in test [1], binding was put at a Kd of 2.3 µM. In addition, in test [2], the FP % inhibition was 43% and the half-inhibitory concentration (IC50) was 5.99 µM. Moreover, the inhibition at 50 µM in test [3] was 47%.

In the case of `COc1ccc(-c2csc(NC(=O)c3cc(C)ccc3-c3ccccc3C(=O)O)n2)cc1` [PJL-126], binding in test [1] was characterised by a dissociation constant (Kd) of 3 µM. In addition, in test [2], the FP % inhibition turned out to be 58% and the IC50 was determined as 2.1 µM. For the same compound, in test [3], the inhibition at 50 µM is 93%.

As for `COc1ccc(-c2csc(NC(=O)c3ncccc3-c3ccccc3C(=O)O)n2)cc1` [PJL-127], in test [1], the Kd stood at 7.6 µM. In test [2], the FP % inhibition is reported as 38% and the concentration for half-maximal inhibition (IC50) amounted to 15.3 µM. For the same compound, in test [3], the inhibition at 50 µM was 100%.

In turn, `CC(C)n1nnc(-c2ccc(O)c(NC(=O)Cc3ccccc3C(=O)O)c2)n1` [PJL-208] yielded a Kd in test [1] of 19.8 µM. Further, in test [2], the FP % inhibition was found to be 16% and the half-inhibitory concentration (IC50) is 97 µM. In addition, the inhibition at 50 µM in test [3] amounted to 0%.

As for `O=C(O)c1cccc(NC2=C(Cl)C(=O)N(c3cc(Cl)ccc3Cl)C2=O)c1` [PJL-211], the affinity in test [1], expressed as Kd, was 11.6 µM. Besides, in test [2], the FP % inhibition came out at 17% and the IC50 is 63.9 µM. Moreover, the inhibition at 50 µM in test [3] worked out at 72%.

`COc1ccc(NC(=O)c2ccc(NS(=O)(=O)c3cc(C(=O)O)ccc3OC)cc2)cc1` [PJS-31]: in test [1], the affinity, expressed as Kd, was 5.6 µM. In test [2], the FP % inhibition was 11% and the 50% inhibitory concentration (IC50) amounted to 225 µM. In addition, the inhibition at 50 µM in test [3] was found to be 0%.

In the case of `O=C(O)c1cc2c(c(S(=O)(=O)Nc3ccc(OCc4ccccn4)c(Cl)c3)c1)CCC2` [PJS-39], the Kd in test [1] is 7.5 µM. In test [2], the FP % inhibition was 14% and the IC50 is 72 µM. Moreover, in test [3], the inhibition at 50 µM came out at 2.3%.

Take `O=C(O)c1ccccc1-c1ccccc1C(=O)Nc1cccc(C(F)(F)F)c1` [PJS-212]: in test [1], binding was characterised by a dissociation constant (Kd) of 8.11 µM. Further, in test [2], the FP % inhibition was found to be 34% and the IC50 was determined as 10.6 µM. In addition, the inhibition at 50 µM in test [3] is 34%.
